Laboratory results published in patent US20260109707A1, “HETEROBIFUNCTIONAL COMPOUNDS AND METHODS OF TREATING DISEASE” (Halda Therapeutics OpCo. Inc., priority 2022, published 2026).
Where two headings read alike, the source gives them in different places.

Columns and labels:
[1] = tested on: T-Rex 293 cell line SC3 cells having increased expression of androgen receptor protein due to exposure to doxycycline; test: Cellular growth inhibition assay, T-Rex 293 SC3 cells with doxycycline (CellTiter-Glo, 72 hours); format: cell-based; conditions: T-Rex 293 SC3 cells with increased androgen receptor expression due to doxycycline (10 ng/mL)
Outline: (§1)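 Doxycycline (10 ng/mL) was either included or omitted to toggle wild-type androgen receptor expression in SC3 cells, a T-Rex 293 clone, grown in stripped-serum, phenol red-free medium. After 72 hours with compound, viable cells were quantified by CellTiter-Glo 2.0.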

[2] = tested on: T-Rex 293 cell line SC3 cells lacking increased expression of androgen receptor protein; test: Cellular growth inhibition assay, T-Rex 293 SC3 cells without doxycycline (CellTiter-Glo, 72 hours); format: cell-based; conditions: T-Rex 293 cell line SC3 cells not exposed to doxycycline (lacking increased androgen receptor expression)
Outline: as §1

[3] = tested on: VCaP cells; test: Cellular growth inhibition assay for VCaP cells (CellTiter-Glo, 72 hours); format: cell-based, human
Outline: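 Luminescent viability signal after 72 h of compound exposure gave GI50 values by four-parameter nonlinear regression. Compounds were added in 0.5% DMSO to cells plated 24 h earlier at 5000/well in DMEM containing 10% FBS.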

GI50 [3] [nM] | GI50 ([3]; Homo sapiens, VCaP, 72 h) [nM] | SMILES | GI50 [1] [nM] | GI50 [2] [nM] | GI50 ([2]; 72 h) [nM] | GI50 ([1]; 72 h) [nM]
< 500 |  | Cc1sc2c(c1C)C(c1ccc(OCC3CC4(CCCN(c5ccc(C(=O)N[C@H]6CC[C@H](Oc7ccc(C#N)c(Cl)c7)CC6)nn5)C4)C3)nc1)=NC1(CC1)c1nnc(C)n1-2 (stereo partly drawn) [I-487] | < 500 | > 3000 |  | 
< 500 |  | Cc1sc2c(c1C)C(c1ccc(CC3CC4(CCCN(c5ccc(C(=O)N[C@H]6CC[C@H](Oc7ccc(C#N)c(Cl)c7)CC6)nn5)C4)C3)cc1)=NCc1nnc(C)n1-2 (stereo partly drawn) [I-488] | < 500 |  | > 3000 | 
< 500 |  | Cc1sc2c(c1C)C(c1ccc(OCC3CC4(CCCN(c5ccc(C(=O)N[C@H]6CC[C@H](Oc7ccc(C#N)c(Cl)c7)CC6)nn5)C4)C3)cc1)=NCc1nnc(C)n1-2 (stereo partly drawn) [I-489] | < 500 | > 3000 |  | 
 | > 3000 | Cc1sc2c(c1C)C(c1ccc(N3CCC4(CC3)CCN(c3ccc(C(=O)N[C@H]5CC[C@H](Oc6ccc(C#N)c(Cl)c6)CC5)nn3)CC4)cc1)=NC1(CC1)c1nnc(C)n1-2 [I-490] |  |  | > 3000 | < 500
 | > 3000 | Cc1sc2c(c1C)C(c1ccc(N3CCN(CC4CCN(c5ccc(C(=O)N[C@H]6CC[C@H](Oc7ccc(C#N)c(Cl)c7)CC6)nn5)CC4)CC3)cc1)=NC1(CC1)c1nnc(C)n1-2 [I-491] |  |  | < 500 | < 500
 | < 500 | Cc1sc2c(c1C)C(c1ccc(N3CCC(CC4CCN(c5ccc(C(=O)N[C@H]6CC[C@H](Oc7ccc(C#N)c(Cl)c7)CC6)nn5)CC4)CC3)cc1)=NC1(CC1)c1nnc(C)n1-2 [I-492] |  |  | > 3000 | < 500
> 3000 |  | Cc1sc2c(c1C)C(c1ccc(COC3CCC4(CCCN(c5ccc(C(=O)N[C@H]6CC[C@H](Oc7ccc(C#N)c(Cl)c7)CC6)nn5)C4)C3)cc1)=NC1(CC1)c1nnc(C)n1-2 (stereo partly drawn) [I-493] |  | 500 to 1500 |  | < 500
 | < 500 | Cc1sc2c(c1C)C(c1ccc(C3CCC4(CC3)CCN(c3ccc(C(=O)N[C@H]5CC[C@H](Oc6ccc(C#N)c(Cl)c6)CC5)nn3)C4)cc1)=N[C@@H](C)c1nnc(C)n1-2 (stereo partly drawn) [I-494] | < 500 |  | < 500 | 
< 500 |  | Cc1sc2c(c1C)C(c1ccc(C3CCC4(CC3)CCN(c3ccc(C(=O)N[C@H]5CC[C@H](Oc6ccc(C#N)c(Cl)c6)CC5)nn3)C4)cc1)=N[C@@H](C)c1nnc(C)n1-2 (stereo partly drawn) [I-495] | > 3000 | < 500 |  | 
< 500 |  | Cc1sc2c(c1C)C(c1ccc(C3CCC4(CCN(c5ccc(C(=O)N[C@H]6CC[C@H](Oc7ccc(C#N)c(Cl)c7)CC6)nn5)CC4)C3)cc1)=N[C@@H](C)c1nnc(C)n1-2 (stereo partly drawn) [I-496] |  |  | > 3000 | < 500
1500 to 3000 |  | Cc1sc2c(c1C)C(c1ccc(C3CCC4(CCN(c5ccc(C(=O)N[C@H]6CC[C@H](Oc7ccc(C#N)c(Cl)c7)CC6)nn5)CC4)C3)cc1)=N[C@@H](C)c1nnc(C)n1-2 (stereo partly drawn) [I-497] | < 500 | > 3000 |  | 
 | < 500 | Cc1sc2c(c1C)C(c1ccc(N3CCN(CC4CCN(c5ccc(C(=O)N[C@H]6CC[C@H](Oc7ccc(C#N)c(Cl)c7)CC6)nn5)CC4)CC3)cc1)=N[C@@H](C)c1nnc(C)n1-2 [I-498] |  |  | > 3000 | < 500
 | < 500 | Cc1sc2c(c1C)C(c1ccc(N3CCC(CN4CCN(c5ccc(C(=O)N[C@H]6CC[C@H](Oc7ccc(C#N)c(Cl)c7)CC6)nn5)CC4)CC3)cc1)=N[C@@H](C)c1nnc(C)n1-2 [I-499] |  |  | > 3000 | < 500
 | > 3000 | Cc1sc2c(c1C)C(c1ccc(N3CCC(CC4CCN(c5ccc(C(=O)N[C@H]6CC[C@H](Oc7ccc(C#N)c(Cl)c7)CC6)nn5)CC4)CC3)cc1)=N[C@@H](C)c1nnc(C)n1-2 [I-500] |  |  | > 3000 | < 500
 | < 500 | Cc1sc2c(c1C)C(c1ccc(N3CCC4(CCCN(c5ccc(C(=O)N[C@H]6CC[C@H](Oc7ccc(C#N)c(Cl)c7)CC6)nn5)C4)CC3)cn1)=NC1(CC1)c1nnc(C)n1-2 [I-501] |  |  | > 3000 | < 500
 | > 3000 | Cc1sc2c(c1C)C(c1ccc(N3CCC4(CC3)CCN(c3ccc(C(=O)N[C@H]5CC[C@H](Oc6ccc(C#N)c(Cl)c6)CC5)nn3)C4)cn1)=NC1(CC1)c1nnc(C)n1-2 [I-502] |  |  | > 3000 | < 500
1500 to 3000 |  | Cc1sc2c(c1C)C(c1ccc(N3CC(C4CCN(c5ccc(C(=O)N[C@H]6CC[C@H](Oc7ccc(C#N)c(Cl)c7)CC6)nn5)CC4)C3)nc1)=NC1(CC1)c1nnc(C)n1-2 [I-503] | < 500 | > 3000 |  | 
 | < 500 | Cc1sc2c(c1C)C(c1ccc(OC3CC4(C3)CC3(CCN(c5ccc(C(=O)N[C@H]6CC[C@H](Oc7ccc(C#N)c(Cl)c7)CC6)nn5)CC3)C4)nc1)=NC1(CC1)c1nnc(C)n1-2 [I-504] |  |  | 500 to 1500 | < 500
 | < 500 | CC1=NN=C2C1c1sc(C)c(C)c1C(c1ccc(N3C[C@@H]4CN(c5ccc(C(=O)N[C@H]6CC[C@H](Oc7ccc(C#N)c(Cl)c7)CC6)nn5)C[C@@H]4C3)cc1)=NC21CC1 (stereo partly drawn) [I-505] |  |  | > 3000 | < 500
1500 to 3000 |  | Cc1sc2c(c1C)C(c1ccc(OC3CCC4(C3)CN(c3ccc(C(=O)N[C@H]5CC[C@H](Oc6ccc(C#N)c(Cl)c6)CC5)nn3)CCO4)cc1)=NC1(CC1)c1nnc(C)n1-2 (stereo partly drawn) [I-506] |  |  | > 3000 | < 500
> 3000 |  | Cc1sc2c(c1C)C(c1ccc(OC3CCC4(C3)CN(c3ccc(C(=O)N[C@H]5CC[C@H](Oc6ccc(C#N)c(Cl)c6)CC5)nn3)CCO4)cc1)=NC1(CC1)c1nnc(C)n1-2 (stereo partly drawn) [I-507] | < 500 | > 3000 |  | 
< 500 |  | Cc1sc2c(c1C)C(c1ccc(OC3CCC4(C3)CN(c3ccc(C(=O)N[C@H]5CC[C@H](Oc6ccc(C#N)c(Cl)c6)CC5)nn3)CCO4)cc1)=NC1(CC1)c1nnc(C)n1-2 (stereo partly drawn) [I-508] | < 500 | > 3000 |  | 
 | > 3000 | Cc1sc2c(c1C)C(c1ccc(COC3CCC4(CCCN(c5ccc(C(=O)N[C@H]6CC[C@H](Oc7ccc(C#N)c(Cl)c7)CC6)nn5)C4)C3)cc1)=NC1(CC1)c1nnc(C)n1-2 (stereo partly drawn) [I-509] | < 500 | > 3000 |  | 
 | > 3000 | CC[C@@H]1N=C(c2ccc(N3CCC4(CCCN(c5ccc(C(=O)N[C@H]6CC[C@H](Oc7ccc(C#N)c(Cl)c7)CC6)nn5)C4)CC3)cc2)c2c(sc(C)c2C)-n2c(C)nnc21 [I-510] |  |  | < 500 | < 500
 | < 500 | Cc1sc2c(c1C)C(c1ccc(N3C[C@@H]4CN(c5ccc(C(=O)N[C@H]6CC[C@H](Oc7ccc(C#N)c(Cl)c7)CC6)nn5)C[C@@H]4C3)cc1)=N[C@@H](C)c1nnc(C)n1-2 [I-511] |  |  | < 500 | < 500
500 to 1500 |  | Cc1sc2c(c1C)C(c1ccc(COC3CCC4(CCCN(c5ccc(C(=O)N[C@H]6CC[C@H](Oc7ccc(C#N)c(Cl)c7)CC6)nn5)C4)C3)cc1)=N[C@@H](C)c1nnc(C)n1-2 (stereo partly drawn) [I-513] | < 500 |  | < 500 | 
1500 to 3000 |  | Cc1sc2c(c1C)C(c1ccc(COC3CCC4(CCCN(c5ccc(C(=O)N[C@H]6CC[C@H](Oc7ccc(C#N)c(Cl)c7)CC6)nn5)C4)C3)cc1)=N[C@@H](C)c1nnc(C)n1-2 (stereo partly drawn) [I-514] |  | < 500 |  | < 500
 | < 500 | Cc1sc2c(c1C)C(c1ccc(N3CC4(CCC(Cc5ccc(C(=O)N[C@H]6CC[C@H](Oc7ccc(C#N)c(Cl)c7)CC6)nn5)CC4)C3)cc1)=N[C@@H](Cc1ncco1)c1nnc(C)n1-2 [I-515] |  |  | > 3000 | < 500
